# Experimental data from ChEMBL document CHEMBL1143396, “Additivity in the analysis and design of HIV protease inhibitors” (J Med Chem, 2009).
# Biological target: Human immunodeficiency virus type 1 protease (Human immunodeficiency virus 1, UniProt Q72874, Q7K)
# Experiment: Inhibition of HIV1 protease Q7K mutant by FRET method
compound,measurement,setting,value
COc1ccc(S(=O)(=O)N(CC(C)C)C[C@@H](O)[C@H](Cc2ccccc2)NC(=O)/C=C(\C)C(F)(F)F)cc1,Ki,read-out: Ki,0.39 nM
same,Ki,read-out: pKi (converted),0.389 nM
